Results: PubChem BioAssay (NCI)
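Cells were grown in 96-well plates and exposed to each compound for 48 hours at five concentrations; endpoints were interpolated linearly between bracketing concentrations, or set to the highest concentration if not reached. At the TGI there is no net growth.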

Key:
Test in all cases: growth of human tumour cells (NCI), 48 h
[1] = test system: DMS 114 small cell lung
[2] = test system: SNB-78 CNS
[3] = test system: RXF-631 renal
[4] = test system: DMS 273 small cell lung
[5] = test system: KM20L2 colon

## CCOC(=O)c1cccc(=O)c(C(=O)OCC)c1
[1]
  TGI: > 100 µM
[2]
  TGI: > 100 µM
[3]
  TGI: > 100 µM
[4]
  TGI: > 100 µM
[5]
  TGI: > 100 µM

## O=C1C2=C(c3ccccc31)C(c1ccc(Cl)cc1)N1C(=O)CCSC1=N2 (centres undefined)
[1]
  TGI: > 100 µM
[3]
  TGI: > 100 µM
[4]
  TGI: > 100 µM
[5]
  TGI: > 100 µM

## COc1c(OC(C)=O)ccc(/C=C2\N=C(C)OC2=O)c1[N+](=O)[O-]
[2]
  TGI: > 100 µM
[3]
  TGI: > 100 µM
[4]
  TGI: > 100 µM
[5]
  TGI: > 100 µM

## CC(C)=CC(=O)CC(=O)C(=O)Nc1ccc(C)c(C)c1
[2]
  TGI: > 100 µM
[3]
  TGI: > 100 µM
[4]
  TGI: > 100 µM
[5]
  TGI: > 100 µM

## CC1=C(C(=O)Nc2ccccc2)C(c2ccc3c(c2)OCO3)C(C(=O)Nc2ccccc2)=C(C)N1
[1]
  TGI: > 100 µM
[3]
  TGI: > 100 µM
[4]
  TGI: 86.5 µM

## O/N=C1/C(=C/c2ccc(F)cc2)CCCC1C(NO)c1ccc(F)cc1 (centres undefined)
[1]
  TGI: > 100 µM
[2]
  TGI: > 100 µM
[3]
  TGI: > 100 µM
[4]
  TGI: > 100 µM
[5]
  TGI: 72.2 µM

## C/C(=N\N(C)C)c1sc(-n2nc(-c3ccccc3)cc2-c2ccccc2)nc1C
[1]
  TGI: > 100 µM
[2]
  TGI: > 100 µM
[3]
  TGI: > 100 µM
[4]
  TGI: > 100 µM
[5]
  TGI: > 100 µM

## S=c1[nH]nc(COc2ccc(Cl)cc2)o1
[1]
  TGI: > 100 µM
[2]
  TGI: > 100 µM
[3]
  TGI: > 100 µM
[4]
  TGI: > 100 µM
[5]
  TGI: > 100 µM

## CCOC(=O)C1C=C2O[C@@H]3OC4(CCCCC4)O[C@@H]3C2[C@H]2C(=O)C=CC(=O)[C@@]12C(=O)OC (some centres undefined)
[1]
  TGI: 9.68 µM
[2]
  TGI: 19.3 µM
[3]
  TGI: 51.8 µM
[4]
  TGI: 22.9 µM
[5]
  TGI: 30.6 µM

## Cc1cc(Br)cc(C)c1NC(=O)C(=O)CC(=O)c1sc(-n2nc(-c3ccccc3)cc2-c2ccccc2)nc1C
[1]
  TGI: > 100 µM
[2]
  TGI: > 100 µM
[3]
  TGI: > 100 µM
[4]
  TGI: > 100 µM
[5]
  TGI: > 100 µM

## NNC(=O)/C(=C/c1cccc([N+](=O)[O-])c1)NC(=O)c1ccccc1
[1]
  TGI: > 100 µM
[2]
  TGI: > 100 µM
[3]
  TGI: > 100 µM
[4]
  TGI: > 100 µM

## CC(=O)Oc1c(C)n(CCCl)ccc1=O
[1]
  TGI: > 100 µM
[2]
  TGI: > 100 µM
[3]
  TGI: > 100 µM
[4]
  TGI: > 100 µM
[5]
  TGI: > 100 µM

## CC(Cl)(/C=C/Cl)C(Cl)/C=C/C(Cl)(CCl)CBr (centres undefined)
[1]
  TGI: 5.32 µM
[2]
  TGI: 4.95 µM
[3]
  TGI: 4.05 µM
[4]
  TGI: 17.1 µM
[5]
  TGI: 23.9 µM
